Source: patent publication US10209240B2, “Predicting human developmental toxicity of pharmaceuticals using human stem-like cells and metabolomic ratios” (STEMINA BIOMARKER DISCOVERY, INC., priority 2012, dated 2019)
Like-named read-outs stand apart in the source and are kept apart here.

Key:
WA09 hES cells [1] = tested on: WA09 hES cells
Description: Phase I hES Cell Compound Exposure. hES cells were treated with a test compound at a single concentration equivalent to the compound's published therapeutic Cmax. […] This was done to ensure that enough cells were present at the time of sample collection to provide a signal for LC-HRMS analysis. For test compound exposure, all compound stock solutions, with the exception of valproic acid, were made with DMSO (Sigma-Aldrich). […] Each 96-well plate included media controls with and without test compound, 0.1% DMSO solvent control cells and cells exposed to a single concentration of eight different test compounds (FIG. 1A). Media controls were included on each plate to assess the impact of test compound on the sample matrix. hES cells were exposed to the test compound for 72 hours, with media and test compound replacement every 24 hours. Cells were monitored throughout the treatment period to ensure that no differentiation was occurring. After 72 hours of treatment, the spent media from the final 24-hour treatment period was collected and added to acetonitrile (Sigma-Aldrich, final acetonitrile concentration 40%), to halt metabolic processes and precipitate proteins from solution. Individual wells from each 96-well plate were collected and analyzed as separate samples. These samples were then stored at −80° C. until prepared for LC-HRMS analysis. Cell viability was assessed using the CellTiter-Fluor Cell Viability Assay as per the manufacturer's instructions (Promega, Madison, Wis.). Quality control parameters were set such that if the coefficient of variation (CV) for the viability relative fluorescent units (RFU) of the 6 cellular samples in a treatment exceeded 10% and no outliers were identified using the Grubb's test (see the worldwide web at graphpad.com/quickcalcs/Grubbs1.cfm), analysis was halted for that compound and the cell culture experiment was repeated. If outliers were present, the outlier sample was removed from analysis. If the CV for the DMSO control cell samples on a plate were outside of the quality control parameters, the entire plate was repeated. hES cell exposure to each of the 23 compounds was replicated a total of nine times.
(§1) Phase 2 hES Cell Compound Exposure. […] The standard compound exposure levels used for most compounds were nine, 3-fold dilutions ranging from 0.04 μM-300 μM (FIG. 1B). […] The stock solution was diluted 1:1000 in mTeSR1 media and subsequent dilutions were performed in mTeSR1 containing 0.1% DMSO such that the final concentration of DMSO was 0.1% in all treatments. hES cells were treated for 72 hours and spent media from the last 24-hour treatment period was collected and added to acetonitrile containing ^13C6 labeled arginine (Cambridge Isotope Laboratories, Andover, Md.) as described under Phase 1. Spent media samples were stored at −80° C. until prepared for LC-HRMS analysis. Cell viability was assessed using the CellTiter-Fluor Cell Viability Assay. A quality control step was included with criteria that the CV of the measured viability RFU of the DMSO control cells could not exceed 10% for a plate to undergo LC-HRMS analysis. A dose response curve was fit to the reference treatment (0.1% DMSO treated control cells) normalized data (Viability RFUTrt X/Viability RFUDMSO) using a four-parameter log-logistic model with the R package “drc” (Ritz and Streibig, 2005, J Statistical Software; 12:1-22).
Phase 2 Prediction of Developmental Toxicity Potential. […] FIG. 2 illustrates how the assay is applied in this situation. A test compound is considered to be teratogenic at the exposure level where the o/c ratio exceeds the teratogenicity threshold (red box, FIG. 2).

WA09 hES cells [2] = assay: Phase 2 targeted biomarker assay, ornithine/cystine ratio, 9-point dose response; conditions: for Teratogenicity Potential (μM) O/C Ratio: human, 72 h
From the text: Undifferentiated hES Cell Line Maintenance (Phases 1 and 2). WA09 hES cells were obtained from the WiCell Research Institute (Madison, Wis.) and were maintained in feeder free conditions using mTeSR1 media (StemCell Technologies, Inc., Vancouver, BC, Canada) on hESC-qualified Matrigel (BD Biosciences, San Jose, Calif.) coated 6-well plates. To maintain the undifferentiated stem cell population, differentiated colonies were removed daily through aspiration and media was replaced. Additionally, the hES cells were only used in experiments up to passage 40 and were karyotyped approximately every 10 passages to minimize and monitor the potential for genetic instability. hES cells were passaged at 90-95% confluency (approximately every 7 days) using Versene (Life Technologies, Grand Island, N.Y.). Cell cultures were maintained at 37° C. under 5% CO2.
96-well hES Cell Plating (Phases 1 and 2). All experimental treatments were carried out in 96-well plates. To minimize plating variability and increase reproducibility, hES cells were plated as a single cell suspension and maintained in an undifferentiated state during compound exposure. Prior to plating in the 96-well plates, hES cells were removed from a 6-well plate using TrypLE (Life Technologies). The cells were washed with DMEM/F12 (Life Technologies) and resuspended in mTeSR1 containing 10 μM Y27632 Rho-associated kinase (ROCK) inhibitor (Merck KGaA/Calbiochem, Darmstadt, Germany). The ROCK inhibitor is added to the plating media to increase plating efficiency by decreasing dissociation-induced apoptosis. The inner 60 wells of hESC-qualified Matrigel coated 96-well plates were seeded at a density of 100,000 cells per well. The outer wells of the plate contained an equal volume media to minimize differences in humidity across the plate. Compound exposure began 24 hours after plating.
as §1
Sample Preparation (Phases 1 and 2). High molecular weight constituents (>10 KDa) of the spent media samples were removed using a Millipore Multiscreen Ultracel-10 filter plate (EMD Millipore, Billerica, Mass.). Prior to sample filtration, the filter plate was washed with 0.1% NaOH to remove a known contaminant polymer. The plate was then rinsed twice with HPLC-grade water to remove residual polymers and NaOH. Spent media samples were added to the washed filter plate. In Phase 1, samples were spiked with ^13C6 labeled arginine. Samples were centrifuged at 2,000×g at 4° C. for 200 minutes. The filtrate was collected and concentrated overnight in a Savant High Capacity Speedvac Plus Concentrator.

Rabbit = conditions: cited from earlier work
Rodent = conditions: cited from earlier work; for Rodent in vivo test results: Embryotoxic: embryotoxic effect in the absence of teratogenic effects and maternal toxicity; for Rodent in vivo test results: Teratogenic: structural malformations in the absence of maternal toxicity; for Rodent developmental toxicity testing, result in words: relation to maternal toxicity where stated
[3] = summarized from TERIS and Briggs et al. 2011, cited from earlier work; for Preclinical in vivo developmental effects: application set compounds; for Preclinical in vivo and known human developmental effects: test set compounds
[4] = cited from earlier work
Humans = conditions: cited from earlier work
[5] = application set, peak plasma concentration in humans
[6] = test set, therapeutic peak plasma in vivo concentration, human

Row | Structure (SMILES) | Teratogenicity Potential (μM) Cell Viability (WA09 hES cells [1]; human, 72 h) | Targeted Biomarker Assay prediction (WA09 hES cells [2]) | Teratogenicity Potential (μM) O/C Ratio (WA09 hES cells [2]) | Rabbit prediction (Rabbit; application set) | Rodent prediction (Rodent; application set) | Preclinical in vivo developmental effects [3] | Cmax [4, 5] | also measured
1 | Nc1nc(NC2CC2)c2ncn([C@H]3C=C[C@@H](CO)C3)c2n1 [Abacavir] | 94.1 µM | NON | 95.1 µM | NON | TER | Skeletal, embryo toxicity^c | 14.9 µM | Rodent in vivo test results: Embryotoxic (Rodent; application set): +; Rodent in vivo test results: Teratogenic (Rodent; application set): +
2 | Nc1nc2c(ncn2COCCO)c(=O)[nH]1 [Acycloguanosine] | >300 µM | NON | – | – | – | – | – | Viability Prediction (WA09 hES cells [1]; test set, teratogenicity potential scored against therapeutic Cmax): NON; Humans (known human developmental toxicity) (Humans; training and test set): NON; Cmax [4, 6]: 3 µM
3 | CC(C)(C)C(=O)OCOP(=O)(COCCn1cnc2c(N)ncnc21)OCOC(=O)C(C)(C)C [Adefovir dipivoxil] | – | TER | – | – | – | – | 0.03 µM | Teratogenicity Potential (μM) Cell Viability (WA09 hES cells [1]; application set, interpolated concentration where cell viability dose response curve crosses teratogenicity threshold 0.88, 72 hours): 0.02 µM; Rodent developmental toxicity testing, result in words (Rodent): only embryotoxic at exposure levels that also caused maternal toxicity
4 | CC(C)CN(C[C@@H](O)[C@H](Cc1ccccc1)NC(=O)O[C@H]1CCOC1)S(=O)(=O)c1ccc(N)cc1 [Amprenavir] | 259.5 µM | NON | 236.9 µM | TER | TER | Skeletal, embryo toxicity^c | 15.1 µM | Rodent in vivo test results: Embryotoxic (Rodent; application set): +; Rodent in vivo test results: Teratogenic (Rodent; application set): +
5 | C[C@H]1[C@H](OC(=O)CCC(=O)O)O[C@@H]2O[C@@]3(C)CC[C@H]4[C@H](C)CC[C@@H]1[C@@]24OO3 [Artesunate] | 0.58 µM | TER | – | – | – | – | 73.9 µM | –
6 | COc1ccccc1Oc1c(NS(=O)(=O)c2ccc(C(C)(C)C)cc2)nc(-c2ncccn2)nc1OCCO [Bosentan] | 221.9 µM | NON | 44.9 µM | – | – | – | – | Viability Prediction (WA09 hES cells [1]): NON; O/C Ratio Prediction (WA09 hES cells [2]): NON; Rabbit prediction (Rabbit; training and test set): NON; Humans (known human developmental toxicity) (Humans; training and test set): TER; Rodent prediction (Rodent; training and test set): TER; Preclinical in vivo and known human developmental effects [3]: Craniofacial,; Cmax [4, 6]: 2 µM
7 | Cn1c(=O)c2c(ncn2C)n(C)c1=O [Caffeine] | >300 µM | – | – | – | – | – | – | Humans (known human developmental toxicity) (Humans; in vivo): NON; Cmax ([4]; training set, therapeutic peak plasma in vivo concentration, human): 9.3 µM
8 | Nc1ccn(C[C@@H](CO)OCP(=O)(O)O)c(=O)n1 [Cidofovir] | 1.9 µM | TER | 0.3 µM | NON | NON | None | 41.2 µM | Rodent developmental toxicity testing, result in words (Rodent): only embryotoxic at exposure levels that also caused maternal toxicity
9 | CCN(CC)C(=O)/C(C#N)=C/c1cc(O)c(O)c([N+](=O)[O-])c1 [Entacapone] | 127 µM | TER | 6.7 µM | NON | TER | Eye defects | 3.9 µM | Rodent in vivo test results: Teratogenic (Rodent; application set): +
10 | CO[C@H]1C[C@@H]2CC[C@@H](C)[C@@](O)(O2)C(=O)C(=O)N2CCCC[C@H]2C(=O)O[C@H]([C@H](C)C[C@@H]2CC[C@@H](OCCO)[C@H](OC)C2)CC(=O)[C@H](C)/C=C(\C)[C@@H](O)[C@@H](OC)C(=O)[C@H](C)C[C@H](C)/C=C/C=C/C=C/1C [Everolimus] | 5.2 µM | TER | <0.04 µM | – | – | – | – | Viability Prediction (WA09 hES cells [1]): NON; Classification by o/c ratio in the targeted biomarker assay (WA09 hES cells [2]): classified as a teratogen; O/C Ratio Prediction (WA09 hES cells [2]): TER; Rabbit prediction (Rabbit; training and test set): NON; Humans (known human developmental toxicity) (Humans; training and test set): TER; Rodent prediction (Rodent; training and test set): TER; Preclinical in vivo and known human developmental effects [3]: Skeletal, embryo toxicity^c; Cmax [4, 6]: 0.02 µM
11 | CCC(=O)NCC[C@@H]1CCc2ccc3c(c21)CCO3 [Ramelteon] | >300 µM | NON | 34 µM | NON | NON | None | 0.02 µM | Rodent developmental toxicity testing, result in words (Rodent): only embryotoxic at exposure levels that also caused maternal toxicity
